Source: patent US10894768B2, “Salt of (R)-(1-methylpyrrolidine-3-yl)methyl(3′-chloro-4′-fluoro-[1,1′-biphenyl]-2-yl)carbamate and crystal form thereof” (Dong-A St Co., Ltd., priority 2016, dated 2021)

Experiments:
Assay type in all cases: physicochemical
[1] = Stress stability in a solid state (stress test)
Method: (§1) 4. Liquid Chromatography (HPLC)
(§2) Detector: Ultraviolet absorptiometer (detection wavelength of 244 nm)
(§3) Column: Waters, XBridge C18, 4.6*150 mm, 5 um
(§4) Column temperature: 40° C.
(§5) Mobile phase buffer: A 0.01M (NH4)HCO3 solution was prepared and adjusted to pH 10.5 by means of ammonia water.
(§6) Mobile phase A: Buffer:Acetonitrile=8:2
(§7) Mobile phase B: Acetonitrile
(§8) Sample solution: 1.0 mg/mL in 50% methanol

[2] = Accelerated stability in the solid state (accelerated test, 40° C./RH 75%); conditions: for Property / Relative purity (%): 40° C./RH 75%; for Change in purity / Physical state: under the accelerated condition
Method: as §1, §2, §3, §4, §5, §6, §7, §8

[3] = Accelerated and stress stability of forms I, II and III; conditions: for Crystal form / Relative purity (%): oxalate; for Stability: under the accelerated and stress conditions
Method: X-ray powder diffraction (XRPD) pattern was obtained by means of a solid-phase detector of BRUKER D8 ADVANCE model using CuKα radiation at 1.54178 Å (40 kV, 40 mA). An analysis was performed through measurement at an angle 2θ in a range of 3° to 50° with a step size of 0.02°.
as §1, §2, §3, §4, §5, §6, §7, §8
The accelerated test (accelerated condition: 40° C./RH 75%) and the stress test (stress condition: 60° C.) were performed on the form I of (R)-(1-methylpyrrolidine-3-yl)methyl(3′-chloro-4′-fluoro-[1,1′-biphenyl]-2-yl)carbamate oxalate prepared in Example 2 above and the form II of (R)-(1-methylpyrrolidine-3-yl)methyl(3′-chloro-4′-fluoro-[1,1′-biphenyl]-2-yl)carbamate oxalate and the form III of (R)-(1-methylpyrrolidine-3-yl)methyl(3′-chloro-4′-fluoro-[1,1′-biphenyl]-2-yl)carbamate oxalate prepared in Examples 3 and 9, wherein analysis results thereof were shown in Table 3.

| Compound | Property ([1]; 60° C., Week 1) | Relative purity ([1]; 60° C., Week 1) | Property ([1]; 60° C., Week 2) | Relative purity ([1]; 60° C., Week 2) | Property ([1]; RH 90%, Week 1) | Relative purity ([1]; RH 90%, Week 1) | Property ([1]; RH 90%, Week 2) | Relative purity ([1]; RH 90%, Week 2) | Property ([1]; initial) | Relative purity ([1]; initial) | Change in purity ([1]; under the stress condition) | Property ([2]; Week 1) | Relative purity (%) ([2]; Week 1) | Property ([2]; Week 2) | Relative purity (%) ([2]; Week 2) | Property ([2]; Week 3) | Relative purity (%) ([2]; Week 3) | Property ([2]; Week 4) | Relative purity (%) ([2]; Week 4) | Property ([2]; initial) | also measured |
| --- | --- | --- | --- | --- | --- | --- | --- | --- | --- | --- | --- | --- | --- | --- | --- | --- | --- | --- | --- | --- | --- |
| (R)-(1-methylpyrrolidine-3-yl)methyl(3′-chloro-4′-fluoro-[1,1′-biphenyl]-2-yl)carbamate citrate | Dissolved | 97.8/ % | Dissolved | 97.9/ % | Dissolved | 97.7/ % | Dissolved | 97.7/ % | Solid | 97.7/ % | do not show a change in purity | Solid | 97.7 | Solid | 97.6 | Dissolved | 97.7 | Dissolved | 97.4 | Solid | Relative purity (%) ([2]; initial): 97.7%; Change in purity [2]: do not show a change in purity; Physical state [2]: show a melting phenomenon |
| CN1CC[C@@H](COC(=O)Nc2ccccc2-c2ccc(F)c(Cl)c2)C1.O=C(O)C(=O)O [Oxalate, (R)-(1-methylpyrrolidine-3-yl)methyl(3′-chloro-4′-fluoro-[1,1′-biphenyl]-2-yl)carbamate oxalate] | Solid | 99.3/ % | Solid | 99.4/ % | Solid | 99.3/ % | Solid | 99.4/ % | Solid | 99.3/ % | do not show a change in purity | Solid | 99.3 | Solid | 99.3 | Solid | 99.3 | Solid | 99.3 | Solid | Physical state ([1]; under the stress condition): kept in an unmelted state; Relative purity (%) ([2]; initial): 99.3%; Change in purity [2]: do not show a change in purity |
| CN1CC[C@@H](COC(=O)Nc2ccccc2-c2ccc(F)c(Cl)c2)C1.O=C(O)C(=O)O [form II, (R)-(1-methylpyrrolidine-3-yl)methyl(3′-chloro-4′-fluoro-[1,1′-biphenyl]-2-yl)carbamate oxalate] |  |  |  |  |  |  |  |  |  |  |  |  |  |  |  |  |  |  |  |  | Crystal form ([3]; 40° C./RH 75% Week 1): form II; Relative purity (%) ([3]; 40° C./RH 75% Week 1): 99.83%; Crystal form ([3]; 40° C./RH 75% Week 3): form II; Relative purity (%) ([3]; 40° C./RH 75% Week 3): 99.81%; Crystal form ([3]; 60° C. Week 1): form II; Relative purity (%) ([3]; 60° C. Week 1): 99.85%; Crystal form ([3]; 60° C. Week 3): form II; Relative purity (%) ([3]; 60° C. Week 3): 99.79%; Crystal form ([3]; Early): form II; Relative purity (%) ([3]; Early): 99.87%; Stability [3]: stable |
| CN1CC[C@@H](COC(=O)Nc2ccccc2-c2ccc(F)c(Cl)c2)C1.O=C(O)C(=O)O [form III, (R)-(1-methylpyrrolidine-3-yl)methyl(3′-chloro-4′-fluoro-[1,1′-biphenyl]-2-yl)carbamate oxalate] |  |  |  |  |  |  |  |  |  |  |  |  |  |  |  |  |  |  |  |  | Crystal form ([3]; 40° C./RH 75% Week 1): form III; Relative purity (%) ([3]; 40° C./RH 75% Week 1): 99.79%; Crystal form ([3]; 40° C./RH 75% Week 3): form III; Relative purity (%) ([3]; 40° C./RH 75% Week 3): 99.80%; Crystal form ([3]; 60° C. Week 1): form III; Relative purity (%) ([3]; 60° C. Week 1): 99.82%; Crystal form ([3]; 60° C. Week 3): form III; Relative purity (%) ([3]; 60° C. Week 3): 99.79%; Crystal form ([3]; Early): form III; Relative purity (%) ([3]; Early): 99.81%; Stability [3]: stable |
| CN1CC[C@@H](COC(=O)Nc2ccccc2-c2ccc(F)c(Cl)c2)C1.O=C(O)C(=O)O [form I, (R)-(1-methylpyrrolidine-3-yl)methyl(3′-chloro-4′-fluoro-[1,1′-biphenyl]-2-yl)carbamate oxalate] |  |  |  |  |  |  |  |  |  |  |  |  |  |  |  |  |  |  |  |  | Crystal form ([3]; 40° C./RH 75% Week 1): form I; Relative purity (%) ([3]; 40° C./RH 75% Week 1): 99.55%; Crystal form ([3]; 40° C./RH 75% Week 3): form I; Relative purity (%) ([3]; 40° C./RH 75% Week 3): 99.60%; Crystal form ([3]; 60° C. Week 1): form I; Relative purity (%) ([3]; 60° C. Week 1): 99.71%; Crystal form ([3]; 60° C. Week 3): form I; Relative purity (%) ([3]; 60° C. Week 3): 99.61%; Crystal form ([3]; Early): form I; Relative purity (%) ([3]; Early): 99.66%; Stability [3]: stable |
| CN1CC[C@@H](COC(=O)Nc2ccccc2-c2ccc(F)c(Cl)c2)C1.O=P(O)(O)O [Phosphate] | Dissolved | 98.4/ % | Dissolved | 98.4/ % | Dissolved | 98.4/ % | Dissolved | 98.4/ % | Solid | 98.4/ % | do not show a change in purity | Dissolved | 98.3 | Dissolved | 98.3 | Dissolved | 98.4 | Dissolved | 98.4 | Solid | Relative purity (%) ([2]; initial): 98.4%; Change in purity [2]: do not show a change in purity; Physical state [2]: show a melting phenomenon |
